Measured values from patent US6057371A, “Sigma receptor ligands and the use thereof” (Virginia Commonwealth University, priority 1992, dated 2000).
pIC50, pKi: −log10 of the molar value.

These compounds were tested against sigma receptor (assay: Sigma receptor binding, [^3 H]DTG, brain membranes (both sigma-1 and sigma-2 sites)). Conditions: not given.
Parameters: species or system guinea pig
Description: Sigma receptor binding assays using guinea pig brain membrane homogenates and the radioligand [^3 H]DTG were conducted as described by Weber et al.. […] Briefly, frozen whole guinea-pig brains (Biotrol, Indianapolis, Ind.) were homogenized in 10 volumes (w/v) of ice-cold 320 mM sucrose using a Brinkman polytron. The homogenate was centrifuged at 1,000× g for 20 minutes at 4° C. The supernatant was centrifuged at 20,000× g for 20 minutes at 4° C. The resulting pellet was resuspended in 10 initial volumes of 50 mM Tris/HCl buffer at pH 7.4 and centrifuged at 20,000× g for 20 minutes at 4° C. The resulting pellet was resuspended in 5 initial volumes ice-cold 50 mM Tris/Hcl […], and the final volume was adjusted to yield a protein concentration of 3 mg/ml. Aliquots of 20-ml were stored at -70° C. until used, with no detectable loss of binding.
The protein concentration in the 1-ml final incubation volume was 800 ug/ml, corresponding to 32 mg of brain tissue (original wet weight) and to a tissue concentration within the linear range for specific binding. […] Incubations were terminated after 90 minutes at room temperature by addition of 4 ml of ice-cold 50 mM Tris/HCl (pH 7.4) and rapid filtration of the membrane suspension through Whatman GF/B glass-fiber filters under vacuum, using a 48-well cell harvester (Brandel). The filters were washed 2 times with 4 ml of 50 mM Tris/HCl (pH 7.4). Each filter was suspended in 10 ml Cytoscint (ICI), and radioactivity was measured by liquid scintillation spectrometry at a counting efficiency of approximately 50%. IC50 values were determined by non-linear regression analyis.
(§1) Further sigma receptor binding assays against [^3 H]DTG and 5HT-1A binding assays were conducted according to the procedure outlined in the previous examples.
Radioligand Binding. […] Briefly, membranes (P2 microsomal fraction) were diluted 1:3 with 50 mM Tris HCl (pH 7.4) and 0.4 mL was combined with 50 μL [^3 H]DTG (1-2 nM final concentration) and 50 μL of competing drug or buffer. After 90 min at room temperature, incubation was terminated by rapid filtration under vacuum through Whatman GF/B glass fiber filters using a Brandel 48-well cell harvester. Filters were washed three times with 5 mL of cold Tris HCl buffer and each filter was suspended in 5 mL of Cytoscint (ICN Biomedical). Radioactivity was measured by liquid scintillation spectrometry at a counting efficiency of 50%.

Compound	IC50
C[C@@H](Cc1ccccc1)N(CCCc1ccccc1)Cc1ccccc1 [Compound 134, N-Benzyl-N-(3-phenylpropyl)-1-phenyl-2-propylamine]	199 nM

Same assay, conditions: Examples 5 and 6; [^3 H]DTG

Compound	change in sigma receptor affinity vs. analog
CN(C)CCCCCC1CCCCC1 [Compound 128, N,N-Dimethyl-5-cyclohexylpentylamine]	~10 fold

Same assay, conditions: Examples 5 and 6; listed as N-benzyl-(5-cyclohexyl)pentylamine; read-out: sigma receptor Ki

Compound	pKi
c1ccc(CNCCCCCC2CCCCC2)cc1 [Compound 94, N-(5-cyclohexylpentyl)benzylamine]	8.89

Same assay, conditions: Table 6; [^3 H]DTG

Compound	IC50
c1ccc2cc(CCCNCCCc3ccc4ccccc4c3)ccc2c1 [Compound 70, Di-[3-(2'-Naphthyl)propyl)amine]	116 nM
c1ccc(CCCCCNCCCc2ccccc2)cc1 [Compound 111, N-(5-phenylpentyl)-3-phenylpropylamine]	2.73 nM
c1ccc(CNCCCCCC2CCCCC2)cc1 [Compound 94, N-(5-cyclohexylpentyl)benzylamine]	4.02 nM
CN(C)CCCCCC1CCCCC1 [Compound 128, N,N-Dimethyl-5-cyclohexylpentylamine]	2.87 nM

Same assay, conditions: Table 7; Phenyl-(CH2)x -NH--(CH2)y -Phenyl; read-out: Ki

Compound	pKi
c1ccc(CCCCCNCCCc2ccccc2)cc1 [Compound 111, N-(5-phenylpentyl)-3-phenylpropylamine]	8.74

Same assay, conditions: running text, Examples 5 and 6; read-out: sigma receptor Ki

Compound	pKi
c1ccc(CNCCCCCC2CCCCC2)cc1 [Compound 94, N-(5-cyclohexylpentyl)benzylamine]	8.47
CN(C)CCCCCC1CCCCC1 [Compound 128, N,N-Dimethyl-5-cyclohexylpentylamine]	8.59

What follows are compounds tested against T1, sigma-1 binding site (Cavia porcellus, UniProt Q60492) (assay: biochemical). Conditions: not given.
T1 construct: Guinea pig whole membrane preparations (P2 microsomal fraction); from tissue; host or cells: guinea pig membranes (P2 microsomal fraction), as described by Weber et al; brain inferred from the sister test b489
T1 sequence (Q60492 whole entry): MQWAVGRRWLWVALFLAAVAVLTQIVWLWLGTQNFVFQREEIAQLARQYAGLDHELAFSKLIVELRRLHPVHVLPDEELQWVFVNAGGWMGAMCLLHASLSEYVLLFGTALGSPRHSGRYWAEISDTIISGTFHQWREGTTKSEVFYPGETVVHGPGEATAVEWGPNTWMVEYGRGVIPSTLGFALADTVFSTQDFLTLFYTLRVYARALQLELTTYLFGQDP
Parameters: species or system guinea pig
Description: [^3 H]DTG was purchased from DuPont/NEN.
The radioactivity on the filters was determined by scintillation spectrometry at an efficiency of about 50% using Cytoscint (ICN) scintillation fluid.

Compound	pIC50	IC50 ratio of sigma-1/sigma-2 (sigma-1 selective compounds)
c1ccc(CNCCCCCC2CCCCC2)cc1 [Compound 94, N-(5-cyclohexylpentyl)benzylamine]	9.09	less than 0.1

Same assay, conditions: Example 8

Compound	sigma-2/sigma-1 selectivity
CN(C)CCCCCC1CCCCC1 [Compound 128, N,N-Dimethyl-5-cyclohexylpentylamine]	650

Same assay, conditions: SIGMA-1 KI vs. 3H-P[…]

Compound	pKi
c1ccc(CNCCCCCC2CCCCC2)cc1 [Compound 94, N-(5-cyclohexylpentyl)benzylamine]	9.09
C[C@@H](Cc1ccccc1)N(CCCc1ccccc1)Cc1ccccc1 [Compound 134, N-Benzyl-N-(3-phenylpropyl)-1-phenyl-2-propylamine]	6.89

Same assay, conditions: Table 10; read-out: SIGMA-1 KI vs. 3H-PENTAZOCINE MEAN

Compound	pKi
c1ccc(CCCCCNCCCc2ccccc2)cc1 [Compound 111, N-(5-phenylpentyl)-3-phenylpropylamine]	9.55
CN(C)CCCCCC1CCCCC1 [Compound 128, N,N-Dimethyl-5-cyclohexylpentylamine]	9.59

Same assay, conditions: Table 10; sigma-1/sigma-2

Compound	S1/S2 Ratio
c1ccc(CCCCCNCCCc2ccccc2)cc1 [Compound 111, N-(5-phenylpentyl)-3-phenylpropylamine]	0.029
CN(C)CCCCCC1CCCCC1 [Compound 128, N,N-Dimethyl-5-cyclohexylpentylamine]	0.001

Same assay, conditions: Table 15; read-out: IC50 (nM) at sigma-1

Compound	IC50
c1ccc(CCCCCNCCCc2ccccc2)cc1 [Compound 111, N-(5-phenylpentyl)-3-phenylpropylamine]	0.28 nM

Same assay, conditions: Table 16; read-out: Sigma-1 IC50

Compound	pIC50
CN(C)CCCCCC1CCCCC1 [Compound 128, N,N-Dimethyl-5-cyclohexylpentylamine]	9.59

Same assay, conditions: guinea pig, microsomes

Compound	S1/S2 Ratio
c1ccc(CNCCCCCC2CCCCC2)cc1 [Compound 94, N-(5-cyclohexylpentyl)benzylamine]	0.019
C[C@@H](Cc1ccccc1)N(CCCc1ccccc1)Cc1ccccc1 [Compound 134, N-Benzyl-N-(3-phenylpropyl)-1-phenyl-2-propylamine]	0.272

Same assay, conditions: less than about 0.1; see Table 10

Compound	IC50 ratio of sigma-1/sigma-2 (sigma-1 selective compounds)
c1ccc(CCCCCNCCCc2ccccc2)cc1 [Compound 111, N-(5-phenylpentyl)-3-phenylpropylamine]	less than 0.1
CN(C)CCCCCC1CCCCC1 [Compound 128, N,N-Dimethyl-5-cyclohexylpentylamine]	less than 0.1

Each compound was assayed against T2, sigma-2 binding site (Cavia porcellus, UniProt H0V073) (assay: biochemical). Conditions: SIGMA-2 KI vs. 3H-DTG + P[…].
T2 construct: Guinea pig whole membrane preparations (P2 microsomal fraction); from tissue; host or cells: guinea pig membranes (P2 microsomal fraction), as described by Weber et al; brain inferred from the sister test b489
T2 sequence (H0V073 1-176): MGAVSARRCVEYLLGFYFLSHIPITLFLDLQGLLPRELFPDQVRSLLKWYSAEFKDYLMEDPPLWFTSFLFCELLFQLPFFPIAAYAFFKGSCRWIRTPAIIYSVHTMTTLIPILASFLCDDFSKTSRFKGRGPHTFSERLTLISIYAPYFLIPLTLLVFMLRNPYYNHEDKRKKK
Parameters: species or system guinea pig
Description: For the standard equilibrium assay, the mixtures were incubated for 30 min. at room temperature, then filtered and the radioactivity determined as described above.

Compound	pKi
C[C@@H](Cc1ccccc1)N(CCCc1ccccc1)Cc1ccccc1 [Compound 134, N-Benzyl-N-(3-phenylpropyl)-1-phenyl-2-propylamine]	6.33

Same assay, conditions: Table 10; read-out: SIGMA-2 KI vs. 3H-DTG + PENTAZOCINE MEAN

Compound	pKi
c1ccc2cc(CCCNCCCc3ccc4ccccc4c3)ccc2c1 [Compound 70, Di-[3-(2'-Naphthyl)propyl)amine]	5.00
c1ccc(CCCCCNCCCc2ccccc2)cc1 [Compound 111, N-(5-phenylpentyl)-3-phenylpropylamine]	8.01
c1ccc(CNCCCCCC2CCCCC2)cc1 [Compound 94, N-(5-cyclohexylpentyl)benzylamine]	7.36
CN(C)CCCCCC1CCCCC1 [Compound 128, N,N-Dimethyl-5-cyclohexylpentylamine]	6.71

Same assay, conditions: Table 18; read-out: IC50 (nM) at sigma-2

Compound	IC50
c1ccc(CCCCCNCCCc2ccccc2)cc1 [Compound 111, N-(5-phenylpentyl)-3-phenylpropylamine]	9.8 nM

What follows are compounds tested against T3, 5-HT1A receptor (Rattus norvegicus, UniProt P19327) (assay: biochemical). Conditions: Table 6; read-out: 5HT-1A (nM) MEAN.
T3 sequence (P19327 1-422): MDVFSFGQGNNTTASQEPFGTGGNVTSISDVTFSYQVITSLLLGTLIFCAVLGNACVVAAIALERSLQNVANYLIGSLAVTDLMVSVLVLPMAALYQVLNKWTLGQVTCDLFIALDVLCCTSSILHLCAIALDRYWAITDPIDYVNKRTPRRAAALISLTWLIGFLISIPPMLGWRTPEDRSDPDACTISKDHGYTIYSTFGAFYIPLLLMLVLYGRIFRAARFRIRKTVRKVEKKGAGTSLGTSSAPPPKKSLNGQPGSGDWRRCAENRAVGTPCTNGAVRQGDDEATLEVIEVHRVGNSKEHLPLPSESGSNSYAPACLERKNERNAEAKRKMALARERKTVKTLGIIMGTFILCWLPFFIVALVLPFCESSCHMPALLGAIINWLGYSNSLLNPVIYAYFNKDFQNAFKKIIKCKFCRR
Format: binding
Parameters: 47: 529-540 (1986); from tissue; host or cells: brain tissue, inferred from the cited method (rat frontal cortex)
Description: as §1

Compound	IC50
c1ccc2cc(CCCNCCCc3ccc4ccccc4c3)ccc2c1 [Compound 70, Di-[3-(2'-Naphthyl)propyl)amine]	3890 nM
c1ccc(CCCCCNCCCc2ccccc2)cc1 [Compound 111, N-(5-phenylpentyl)-3-phenylpropylamine]	92.2 nM
c1ccc(CNCCCCCC2CCCCC2)cc1 [Compound 94, N-(5-cyclohexylpentyl)benzylamine]	5550 nM
